Values quoted from earlier work, collected in patent US7547776B1, “Process for the production of fludarabine-phosphate lithium, sodium, potassium, calcium and magnesium salts and purification process for the production of fludarabine-phosphate and fludarabine-phosphate with a purity of at least 99.5%” (Bayer Schering Pharma Aktiengesellschaft, priority 1997, dated 2009).

Details: in water at approximately 75° C. (recrystallization)

thermal stability in water: thermally unstable
Structure (SMILES): Nc1nc(F)nc2c1ncn2[C@@H]1O[C@H](COP(=O)(O)O)[C@@H](O)[C@@H]1O [fludarabine-phosphate, 9-β-D-arabinofuranosyl-2-fluoroadenine-5′-O-dihydrogenphosphate]
